Source: patent US20070192880A1, “Horming response element binding transregulators” (UNIVERSITY OF ROCHESTER, priority 2003, published 2007)
“Also recorded” adds a separate entry of the source.

Tests used:
[1] = system: ERE-driven TATA box promoter; test: luciferase reporter, consensus ERE upstream of TATA box promoter, COS-1 cells; assay type: cell-based, African green monkey
Source text: Proteins were probed with a Flag antibody followed by a fluorescein-conjugated secondary antibody for visualization (FITC). DAPI staining indicates the nucleus. […] (*) denotes mutants with an impaired DNA binding finction, while VP16* depicts the activation function defective construct. The reporter plasmid contained either one (1× ERE) or two copies (2× ERE) of the consensus ERE in tandem located upstream of a simple promoter, TATA box, driving the expression of the firefly luciferase cDNA. The transfection efficiency was monitored by the co-expression of 0.5 ng of a reporter plasmid, pCMV-RL that drives the expression of Renilla luciferase cDNA. Cells were treated with or without 10^−9 M E2 for 24 h. The cell extracts were assayed for luciferase enzymes, and the normalized firefly/Renilla luciferase activities are presented as fold changes compare to the control, which was set to one. Shown are the mean±SEM of three independent experiments performed in duplicate.
Culturing and transfection of the mammalian COS-1 and […] MDA-MB-231 cells were described previously (Muyan, M. et al. (2001) Mol Cell Endocrinol 182,249-263; Yi, P. et al. (2002) Mol Endocrinol 16, 1810-1827), with the exceptions that 48 well cell culture plates were used and Trans-IT LTI transfection reagent (Mirus Corp., Madison, Wis.). […]

[2] = system: pS2, C3 and Oxytocin promoter constructs; test: pS2, C3 and Oxytocin promoter luciferase reporters, MCF-7 cells; assay type: cell-based, human; settings: absence or presence of 10^−9 M E2, FIG. 6A
Protocol: (§1) Transfection and processing of cells were done as described in legend of FIG. 5.
(§2) Culturing and transfection of the mammalian COS-1 and […] MDA-MB-231 cells were described previously (Muyan, M. et al. (2001) Mol Cell Endocrinol 182,249-263; Yi, P. et al. (2002) Mol Endocrinol 16, 1810-1827), with the exceptions that 48 well cell culture plates were used and Trans-IT LTI transfection reagent (Mirus Corp., Madison, Wis.). Luciferase assays were performed with a Dual Luciferase Assay kit (Promega) according to the manufacture's recornmendations. Steroid hormones and 9-cis retinoic acid were purchased from Sigma-Aldrich (St. Louis, Mo.). For transfection of MDA-MB-231 and MCF-7 cells, the cells were incubated for three days in a phenol red-free DMEM supplemented with 10% charcoal-dextran treated fetal bovine serum (CD-FBS). Cells were transfected with appropriate expression vectors using Lipofectamine 2000 transfection reagent (Invitrogen).

MCF-7 cells = test: cell cycle analysis (FACS, EGFP-positive cells), transfected MCF-7 cells; assay type: cell-based, human
Protocol: as §1
MDA-MB-231 and MCF-7 cells were grown as described above. Cells were then transiently transfected with the EGFP vector bearing a cDNA for ERα, CDC or an EBA. Twenty-four hours after transfection, cells were collected by trypsinization, washed in phosphate buffered saline (PBS) and fixed with 1% paraformaldehyde in PBS for one hour. Cells were permeabilized in 70% Ethanol overnight and stained with 50 μg/ml propidium iodide (PI, Sigma-Aldrich) for one hour for flow cytometry analysis. Samples were analyzed on a FACS EPICS Elite EPS flow cytometer (Coulter Corp., Hialeah, Fla.). The percentages of cells at G1 phase were assessed among treatment groups and expressed as percent change compared to cells transfected with EGFP vector bearing no cDNA.

RARα promoter = RARα promoter luciferase reporter, MCF-7 cells; assay type: cell-based, human; settings: without or with 10^−9 M E2
Protocol: as §1, §2

[3] = system: human Catepsin D (CatD) gene promoter; test: CatD promoter luciferase reporter, COS-1 cells; assay type: cell-based, African green monkey; settings: without or with 10^−9 M E2 or 10^−7 M 4-OHT, 24 h
Source text: Transfection and processing of cells were done as described in legend of FIG. 7. The reporter vector contains the human Catepsin D (CatD) gene promoter that drives the firefly luciferase cDNA expression. The mean±SEM indicates three independent experiments performed in duplicate.
(§3) The CatD and C3 promoters were generated by PCR using pCD3542 (Augereau P. et al. Mol Endocr 8:693-703) and pC3TI (Fan JD. (1996) Mol Endocrinol 10: 1605-16) reporter plasmids as templates, respectively. A fragment of 730 bp [−750 to −22, +1 is referred to the first ATG, (Parker, M. G. (1998) Biochem Soc Symp 63, 45-50)] of the promoter region of CatD gene or 580 bp [−516 to +61, +1 as the transcription start site) of the C3 gene (Tzukerman, M. T. et al. (1994) Mol Endocrinol 8, 21-30)] was generated. PCR fragments were then inserted into the reporter plasmid pGL3-Basic linearized with appropriate restriction enzymes.
(§4) COS-1 cells were transfected with a reporter construct bearing CatD or C3 promoter together with the expression vector bearing none (V, as control), cDNA for ERα or an EBR. Following a transfection, cells were treated without or with 10^−9 M E2 or 10^−7 M 4-OHT for 24 h.

human C3 gene promoter = test: C3 promoter luciferase reporter, COS-1 cells; assay type: cell-based, African green monkey
Source text: Transfection and processing of cells were done as described in legend of FIG. 7. Shown are the mean±SEM of three independent experiments performed in duplicate and expressed as fold changes compare to the parent expression vector (V), which was set to one.
as §3, §4

VP16: activation domain of the herpes simplex virion protein VP16 alone, residues 403-490
effect on transcription from ERE-TATA reporter [1]: did not alter the transcription

C[C@]12CC[C@@H]3c4ccc(O)cc4CC[C@H]3[C@@H]1CC[C@@H]2O [Construct E2, estradiol 17β]
reporter enzyme activity from pS2, C3 and Oxytocin promoter constructs [2]: enhanced reporter enzyme activity
G1/S phase transition / cell cycle progression (MCF-7 cells; charcoal-dextran treated FBS, E2 10^−9 M): enhanced the G1/S phase transition
transcriptional response from the RARα promoter (RARα promoter): enhanced the reporter activity

4-hydroxytamoxifen [Construct 4-OHT]
effect on CatD promoter reporter enzyme activity [3]: did not alter the transcription of the reporter enzyme mediated by ERα; also recorded: prevented the E2-ERα complex-mediated augmentation
effect on C3 promoter reporter enzyme activity (human C3 gene promoter): effectively decreased the transcription induction
cells accumulated in the G1 phase (MCF-7 cells; medium with untreated FBS, 4-OHT 10^−7 M): increased the cell population in the G1 phase
